Values of other authors in US20240139231A1, “METFORMIN COMPOSITIONS AND METHODS FOR TREATMENT OF DIABETES” (priority 2018, published 2024).

Columns and labels:
[1] = 500 mg/day co-administered with metformin, 12 weeks

Structure (SMILES) | time to maximum effect (blood glucose levels; depending on the dose) | low threshold dose at which effects on blood glucose levels become significant (blood glucose levels; in vivo) | time until effects begin to appear after the user starts taking the medication (blood glucose levels; in vivo) [h] | reduction of blood sugar levels, HbA1c measure, relative to metformin in combination with a placebo (type 2 diabetes mellitus; [1]) [%] | reduction of blood sugar levels, fasting measure, relative to metformin in combination with a placebo (type 2 diabetes mellitus; [1]) [%] | reduction of blood sugar levels, post-prandial measure, relative to metformin in combination with a placebo (type 2 diabetes mellitus; [1]) | effect on blood sugar when co-administered in lower amounts (type 2 diabetes mellitus; lower amounts, earlier reports by others)
CN(C)C(=N)NC(=N)N [metformin, Metformin] | within four to five days | 1,500 mg/day | ≤ 48 | – | – | – | –
O=C1O[C@H]([C@@H](O)CO)C(O)=C1O [ascorbic acid] | – | – | – | 1.5 | 7 | ca. 3% | no effect
